Holding throughout (assay type): functional, organism-based
What all share (parameters): conc 20 uM

Assay [1] deals with Mycobacteroides abscessus. Briefly: (§1) Inhibition of mycobacterial growth using the resazurin microtitre cell viability assay (REMA), compounds at final concentration of 20 µM (2% v/v DMSO). Hits were classed as compounds that inhibited bacterial growth by 70% or more compared to drug-free controls. The conditions noted are these: ATCC19977. A general note: Resazurin is reduced to fluorescent resorufin, in cell work by metabolically active cells.

In assay [2] the test system is Mycobacterium intracellulare subsp. chimaera. The description is as §1. The conditions noted are these: NCTC13781.
Assay [3] has as its system Mycobacterium tuberculosis. The assay is described as §1. The settings on record: H37Rv.

As for MMV689060, the results for the Survival in assay [1], in assay [2] and in assay [3] were 119%, 109% and 104%, respectively.
Regarding MMV689061, the Survival in assay [1] is 118%; in assay [2] it was 127%; in assay [3], 122%.
On the same counts, the results for MMV689243 are 113%, 110% and 82.6%.
On the same counts, the results for MMV689244 are 115%, 107% and 90.1%.
On the same counts, the results for MMV689255 are 124%, 109% and 89.2%.
Turning to MMV689437, the values for the Survival in assay [1], in assay [2] and in assay [3] were 99%, 106% and 104%, respectively.
In the case of MMV689480, the Survival in assay [1] was 112%; in assay [2], 95.5%; in assay [3], 98.5%.
On the same counts, the results for MMV689709 are 114%, 91.7% and 97.3%.
For MMV689758, in that order: 19.8%, 1.81% and 5.64%.
For MMV690027, the Survival in assay [1] is 111%; in assay [2], 104%; in assay [3], 101%.
For MMV690028, in that order: 120%, 92.3% and 95.8%.
On the same counts, the results for MMV690102 are 113%, 111% and 106%.
On the same counts, the results for MMV690103 are 117%, 110% and 105%.
On to MMV1019989, for which the Survival in assay [1] is 99%; in assay [2], 107%; in assay [3], 105%.
As for MMV1028806, the Survival in assay [1] was 116%; in assay [2], 100%; in assay [3], 26.7%.
Turning to MMV1029203, the results for the Survival in assay [1], in assay [2] and in assay [3] were 116%, 125% and 128%, respectively.
Consider MMV1030799, for which the results for the Survival in assay [1], in assay [2] and in assay [3] were 121%, 99.7% and 18.8%, respectively.
Take MMV1037162: the Survival was 97.5% in assay [1], 107% in assay [2] and 107% in assay [3].
Take MMV1088520: the Survival was 110% in assay [1], 98.2% in assay [2] and 102% in assay [3].
For MMV1110498, in that order: 111%, 102% and 97.9%.
On the same counts, the results for MMV1198433 are 98.6%, 112% and 105%.
On the same counts, the results for MMV1236379 are 110%, 98.4% and 96%.

For the origin of these results see ChEMBL document CHEMBL4665541, “Search for new therapeutic options for the uncommon pathogen Mycobacterium chimaera: an open drug discovery approach” (Lancet Microbe, 2021).
